From patent US20050245520A1, “2-Phenylpyridin-4-yl derivatives as alk5 inhibitors” (priority 2002, published 2005)

How the values were obtained:
[1] = system: TGF-β signalling (PAI-1 promoter-luciferase in HepG2 cells); assay: Cellular transcriptional assay: PAI-1 promoter firefly luciferase reporter in cells exposed to TGF-β; assay type: cell-based; conditions: 500 μM CPO in presence of TGF-β; relative to TGF-β only
Protocol: Assay 1 (Cellular Transcriptional Assay)
The assay was performed in HepG2 cells stably transfected with the PAI-1 promoter (known to be a strong TGF-β responsive promoter) linked to a luciferase (firefly) reporter gene. The compounds were selected on their ability to inhibit luciferase activity in cells exposed to TGF-β. In addition, cells were transfected with a second luciferase (Renilla) gene which was not driven by a TGF-β responsive promoter and was used as a toxicity control.
96 well microplates were seeded, using a multidrop apparatus, with the stably transfected cell line at a concentration of 35000 cells per well in 200 μl of serum-containing medium. These plates were placed in a cell incubator.
18 to 24 hours later (Day 2), cell-incubation procedure was launched. Cells were incubated with TGF-β and a candidate compound at concentrations in the range 50 nM to 10 μM (final concentration of DMSO 1%). The final concentration of TGF-β (rhTGFβ-1) used in the test was 1 ng/mL. Cells were incubated with a candidate compound 15-30 mins prior to the addition of TGF-β. The final volume of the test reaction was 150 μl. Each well contained only one candidate compound and its effect on the PAI-1 promoter was monitored.
Columns 11 and 12 were employed as controls. Column 11 contained 8 wells in which the cells were incubated in the presence of TGF-β, without a candidate compound. Column 11 was used to determine the ‘reference TGF-β induced firefly luciferase value’ against which values measured in the test wells (to quantify inhibitory activity) were compared. […]
12 to 18 hours later (day 3), the luciferase quantification procedure was launched. […] Following agitation (15 to 30 mins), luciferase activities of the plates were read in a dual-injector luminometer (BMG lumistar). For this purpose, 50 μl of luciferase assay reagent and 50 μl of ‘Stop & Glo’ buffer were injected sequentially to quantify the activities of both luciferases. […] For each of the compounds tested, a concentration response curve was constructed from which an IC50 value was determined graphically.

Row | Structure (SMILES) | firefly and renilla luciferase activities (toxicity control) [1] | melting point [°C]
1 | O=C1C=CCC1 [CPO, Cyclopentenone, reference compound] | around 50% | –
2 | Cc1cccc(-c2nc3ccccn3c2-c2ccnc(-c3ccc(OCc4cn(C)cn4)cc3)c2)n1 [Example 76, 2-(6-methyl-pyridin-2-yl)-3-{2-[4-((1-methyl-imidazol-4-yl)methyloxy)phenyl]-pyridin-4-yl}-imidazo[1,2-a]pyridine] | – | 120
3 | Cc1cccc(-c2nc3ccccn3c2-c2ccnc(-c3ccc(CN4CCOCC4)cc3)c2)n1 [Example 56, 2-(6-methyl-pyridin-2-yl)-3-[2-(4-(morpholin-4-ylmethyl)phenyl)-pyridin-4-yl]-imidazo[1,2-a]pyridine] | – | 156
4 | CCS(=O)(=O)c1ccc(-c2cc(-c3c[nH]nc3-c3cccc(C)n3)ccn2)cc1 [Example 2, 2-[4-(Ethylsulfonyl)phenyl]-4-[3-(6-methylpyridin-2-yl)-1H-pyrazol-4-yl]pyridine] | – | 244
5 | Cc1ccn2c(-c3ccnc(-c4ccc(OCC(N)=O)cc4)c3)c(-c3cccc(C)n3)nc2c1 [Example 77, 7-methyl-2-(6-methyl-pyridin-2-yl)-3-{2-[4(aminocarbonylmethyloxy)phenyl]-pyridin-4-yl}-imidazo[1,2-a]pyridine] | – | 213
6 | Cc1cccc(-c2nc3ccccn3c2-c2ccnc(-c3ccc(N4CCOCC4)cc3)c2)n1 [Example 79, 2-(6-methyl-pyridin-2-yl)-3-{2-[4-(morpholin-4-yl)phenyl]-pyridin-4yl}-imidazo[1,2-a]pyridine] | – | 190
7 | Cc1cccc(-c2nc3c(C)cccn3c2-c2ccnc(-c3ccc(OCC(N)=O)cc3)c2)n1 [Example 78, 8-methyl-2-(6-methyl-pyridin-2-yl)-3-{2-[4-(aminocarbonylmethyloxyl)phenyl]-pyridin-4-yl}-imidazo[1,2-a]pyridine] | – | 183
8 | Cc1cccc(-c2sc(N)nc2-c2ccnc(-c3ccc(OC(F)(F)F)cc3)c2)n1 [Example 126] | – | 232
9 | COCCCNC(=O)c1ccc(-c2cc(-c3c(-c4cccc(C)n4)nc4ccccn34)ccn2)cc1 [Example 67, 2-(6-methyl-pyridin-2-yl)-3-{2-[4-((3-methoxypropylamino)carbonyl)phenyl]-pyridin-4-yl}-imidazo[1,2-a]pyridine] | – | 165
10 | Cc1cccc(-c2[nH]c(C(C)(C)C)nc2-c2ccnc(-c3ccc(OCC(N)=O)cc3)c2)n1 [Example 107, 2-{4-[4-(2-tert-Butyl-5-{6-methyl}pyridin-2-yl-1H-imidazol-4-yl)-pyridin-2-yl]-phenoxy}-acetamide] | – | 210
11 | Cc1cccc(-c2n[nH]cc2-c2ccnc(-c3ccc(OC(F)(F)F)cc3)c2)n1 [Example 4] | – | 131
12 | Cc1cccc(-c2n[nH]cc2-c2ccnc(-c3ccc(C(=O)NC4CCOCC4)cc3)c2)n1 [Example 14, 4-{4-[3-(6-methylpyridin-2-yl)-1H-pyrazol-4-yl]pyridin-2-yl}-N-(tetrahydro-2H-pyran-4-yl)benzamide] | – | 148
13 | Cc1cccc(-c2n[nH]cc2-c2ccnc(-c3ccc(Cl)cc3)c2)n1 [Example 5] | – | 190
14 | Cc1cccc(-c2[nH]c(C(C)(C)C)nc2-c2ccnc(-c3ccc(OCCN4CCCC4)cc3)c2)n1 [Example 108, 4-(2-tert-Butyl-5-{6-methyl}-pyridin-2-yl-1H-imidazol-4-yl)-2-[4-(2-pyrrolidin-1-yl-ethoxy)-phenyl]-pyridine] | – | 168
15 | Cc1cccc(-c2sc(N)nc2-c2ccnc(-c3ccc(N4CCOCC4)cc3)c2)n1 [Example 132] | – | 246
16 | Cc1cccc(-c2n[nH]cc2-c2ccnc(-c3ccc(S(C)(=O)=O)cc3)c2)n1 [Example 7] | – | 232 to 234
17 | Cn1cnc(COc2ccc(-c3cc(-c4nc(C(C)(C)C)[nH]c4-c4ccccn4)ccn3)cc2)c1 [Example 109, 4-(2-tert-Butyl-5-pyridin-2-yl-1H-imidazol-4-yl)-2-[4-(1-methyl-1H-imidazol4-ylmethoxy)-phenyl]-pyridine] | – | 156
18 | COc1ccc(-c2cc(-c3c(-c4ccccn4)nc4ccccn34)ccn2)cc1 [Example 34, 3-[2-(4-methoxyphenyl)-pyridin-4-yl]-2-pyridin-2-yl-imidazo[1,2-a]pyridine] | – | 222
19 | Cc1cccc(-c2c[nH]nc2-c2ccnc(-c3ccc(N4CCOCC4)cc3)c2)n1 [Example 20] | – | 210

Row | Structure (SMILES) | firefly and renilla luciferase activities (toxicity control) [1] | melting point [°C]
20 | Cc1ccn2c(-c3ccnc(-c4ccc(OCc5cn(C)cn5)cc4)c3)c(-c3cccc(C)n3)nc2c1 [Example 75, 7-methyl-2-(6-methyl-pyridin-2-yl)-3-{2-[4-((1-methyl-imidazol-4-yl)methyloxy)phenyl]-pyridin-4-yl}-imidazol[1,2-a]pyridine] | – | 217
21 | Cc1cccc(-c2sc(N)nc2-c2ccnc(-c3ccc(OCC(N)=O)cc3)c2)n1 [Example 134] | – | 191
22 | c1ccc(-c2nc3ccccn3c2-c2ccnc(-c3ccc(N4CCOCC4)cc3)c2)nc1 [Example 54, 3-[2-(4-(morpholin-4-yl)-phenyl)-pyridin-4-yl]-2-pyridin-2-yl-imidazo[1,2-a]pyridine] | – | 145
23 | Cc1cccc(-c2sc(N)nc2-c2ccnc(-c3ccc(CN4CCOCC4)cc3)c2)n1 [Example 131] | – | 236
24 | Cc1cccc(-c2n[nH]cc2-c2ccnc(-c3ccc(OCc4cn(C)cn4)cc3)c2)n1 [Example 1, 2-{4-[(1-methyl-1H-imidazol-4-yl)methoxy]phenyl}-4-[3-(6-methylpyridin-2-yl)-1H-pyrazol-4-yl]pyridine] | – | 191
25 | Cc1cccc(-c2cn[nH]c2-c2ccnc(-c3ccc(C(=O)NC4CCOCC4)cc3)c2)n1 [Example 18, 3-[2-(4-((tetrahydropyran-4-yl)aminocarbonyl)phenyl)pyridin-yl]-4-[6-methylpyridin-2-yl]-1H-pyrazole] | – | 170
26 | CCS(=O)(=O)c1ccc(-c2cc(-c3nc(N)sc3-c3cccc(C)n3)ccn2)cc1 [Example 127] | – | 219
27 | Nc1nc(-c2ccccn2)c(-c2ccnc(-c3ccc(N4CCOCC4)cc3)c2)s1 [Example 111] | – | 246
28 | Cc1cccc(-c2sc(N)nc2-c2ccnc(-c3ccc(Cl)cc3)c2)n1 [Example 125] | – | 222
29 | Cc1cccc(-c2c[nH]nc2-c2ccnc(-c3ccc(CN4CCOCC4)cc3)c2)n1 [Example 21] | – | 128
30 | Cc1ccn2c(-c3ccnc(-c4ccc(N5CCOCC5)cc4)c3)c(-c3cccc(C)n3)nc2c1 [Example 80, 7-methyl-2-(6-methyl-pyridin-2-yl)-3-{2-[4-(morpholin-4-yl)phenyl]-pyridin-4-yl}-imidazo[1,2-a]pyridine] | – | 208
31 | CN1CCN(c2ccc(-c3cc(-c4c(-c5ccccn5)nc5ccccn45)ccn3)cc2)CC1 [Example 55, 3-{2-[4-(4-methylpiperazin-1-yl)-phenyl]-pyridin-4-yl}-2-pyridin-2-yl-imidazo[1,2-a]pyridine] | – | 150
32 | Cc1cccc(-c2n[nH]cc2-c2ccnc(-c3ccc(C#N)cc3)c2)n1 [Example 3] | – | 198
33 | Cc1cccc(-c2[nH]c(C(C)(C)C)nc2-c2ccnc(-c3ccc(C(=O)NC4CCOCC4)cc3)c2)n1 [Example 81] | – | 174
34 | Cc1cccc(-c2sc(N)nc2-c2ccnc(-c3ccc(CN(C)C)cc3)c2)n1 [Example 137] | – | 210
35 | Cc1cccc(-c2[nH]c(C(C)(C)C)nc2-c2ccnc(-c3ccc(CN(C)C)cc3)c2)n1 [Example 101, (4-{4-[2-tert-Butyl-5-(6-methyl-pyridin-2-yl)-1H-imidazol-4-yl]-pyridin-2-yl}-benzyl)-dimethyl-amine] | – | 187
36 | Cc1cccc(-c2nc3ccccn3c2-c2ccnc(-c3ccc(NS(=O)(=O)C(F)(F)F)cc3)c2)n1 [Example 53, 2-(6-methyl-pyridin-2-yl)-3-{2-[4-(trifluoromethylsulfonylamino)phenyl]-pyridin-4-yl}-imidazo[1,2-a]pyridine] | – | 135
37 | Cc1cccc(-c2nc3ccccn3c2-c2ccnc(-c3ccc(C(=O)N4CCOCC4)cc3)c2)n1 [Example 66, 2-(6-methyl-pyridin-2-yl)-3-{2-[4-((morpholin-4-yl)carbonyl)phenyl]-pyridin-4-yl}-imidazo[1,2-a]pyridine] | – | 110
